The text below walks through data of PMC11378297, “Discovery and Profiling of New Multimodal Phenylglycinamide Derivatives as Potent Antiseizure and Antinociceptive Drug Candidates” (ACS Chemical Neuroscience, 2024).

The structures appear in SMILES notation.

For one data set, the target named is T1, CYP3A4 (Homo sapiens, UniProt P08684).
T1 construct: purchased Promega (Madison, WI, USA)
The experiment in a line: CYP3A4 P450-Glo assay. Format: in vitro ADME. As to conditions: 10 μM. As for the experimental part:
The inhibition effect of enantiomers on CYP2C9 was also determined, but only at the highest concentrations (Figure 10C). In summary, the potential for DDIs of the tested enantiomers in comparison to the reference CYP inhibitors was estimated as very low.
Figure 10 Influence of (R)-31, (R)-32, and (R)-33 on: CYP3A4 activity (A) and the reference inhibitor ketoconazole (KE), CYP2D6 activity (B) and the reference inhibitor quinidine (QD), CYP2C9 activity (C) and the reference inhibitor sulfaphenazole (SE). The results are presented as means + SD. Statistical significance was evaluated by one-way ANOVA, followed by Bonferroni’s multiple comparison post hoc test (Graph Pad Prism 8.0.1 software) *p < 0.05, **p < 0.01, ***p < 0.001, ****p < 0.0001.
All assays and protocols used for the evaluation of compounds ADME-Tox parameters were described previously.[35]−[38],[95]−[98] […] The vitality of the cells was assessed using the CellTiter 96 AQueous Non-Radioactive Cell Proliferation Assay (Promega, Madison, WI, USA), following a 48 h incubation period with either the reference medication, doxorubicin (DOX), or serial dilutions of the investigated compounds. Using an EnSpire PerkinElmer microplate reader (Waltham, MA, USA), the luminescent signal and absorbances (measured at 490 nm) in DDIs and safety assays were determined. […]

The test system of data set [1] is PTZ-induced kindling, mice. The experiment in a line: PTZ-induced kindling model. Format: in vivo, mouse. The method, then:
We investigated the impact of lead compound (R)-32 on PTZ-induced kindling in mice to further assess its antiseizure potential (Figure 3). […] The PTZ-induced kindling model is widely recognized as a useful method to induce chronic increase in susceptibility to epileptic seizures.
Figure 3 Effect of repeated treatment with (R)-32 in PTZ-induced kindling model in mice. […] Data are presented as means of seizure severity (n = 10–15 animals). Statistical significance was evaluated by a mixed effects model for repeated measures followed by Tukey’s post hoc test: **p < 0.01, […] vs control group (GraphPad Prism 8.4.3).
The procedure was performed as described in detail in our previous studies.[88],[89] […] Seizures were induced three times a week by i.p. administration of PTZ at a subconvulsive dose of 40 mg/kg. […] The seizure severity was scored using the modified Racine’s scale. […] The locomotor activity test, the elevated plus maze test, and the FST were performed 24 h after the last PTZ injection, according to the methods described in detail elsewhere. After completion of behavioral tests, animals were sacrificed. Hippocampi and cortices were dissected from the brains, frozen, and stored at −80 °C until assay. Following each PTZ injection, the mean seizure severity scores were determined for each experimental group. A mixed effects model for repeated measurements was used for analysis, along with Tukey’s post hoc test. The percentage of fully kindled mice was compared using Fisher’s exact probability test.

Data set [2] in a line: PAMPA (Precoated PAMPA Plate System Gentest) passive permeability. Format: in vitro ADME.

T1 sequence (P08684 whole entry): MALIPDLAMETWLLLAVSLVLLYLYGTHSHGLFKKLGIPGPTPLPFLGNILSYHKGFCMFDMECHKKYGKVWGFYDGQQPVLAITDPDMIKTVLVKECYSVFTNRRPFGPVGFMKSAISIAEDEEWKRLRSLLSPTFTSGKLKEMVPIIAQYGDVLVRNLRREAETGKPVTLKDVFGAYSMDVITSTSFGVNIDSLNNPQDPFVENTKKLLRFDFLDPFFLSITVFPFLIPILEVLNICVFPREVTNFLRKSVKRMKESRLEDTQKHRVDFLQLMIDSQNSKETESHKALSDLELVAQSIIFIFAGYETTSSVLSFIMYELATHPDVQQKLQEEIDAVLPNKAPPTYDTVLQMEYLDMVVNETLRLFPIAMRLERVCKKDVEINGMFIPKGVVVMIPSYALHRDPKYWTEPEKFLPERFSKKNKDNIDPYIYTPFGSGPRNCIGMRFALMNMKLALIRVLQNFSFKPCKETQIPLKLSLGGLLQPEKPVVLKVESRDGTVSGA

Turning to `CC(=O)N[C@@H](C(=O)N1CCN(c2cccc(C(F)(F)F)c2)CC1)c1ccccc1` [(R)-31, (R)-N-(2-Oxo-1-phenyl-2-(4-(3-(trifluoromethyl)phenyl)piperazin-1-yl)ethyl)acetamide], the melting point was in the range of 112.9 to 113.5 °C. Moreover, the “effect on CYP3A4 activity” value on CYP3A4 is on record as “significantly inhibited”.

Consider `CC(=O)N[C@@H](C(=O)N1CCN(c2cccc(OC(F)(F)F)c2)CC1)c1ccccc1` [(R)-32, (R)-N-(2-Oxo-1-phenyl-2-(4-(3-(trifluoromethoxy)phenyl)piperazin-1-yl)ethyl)acetamide], for which the “effect on kindling development” value in data set [1] (20 mg/kg i.p. repeatedly every 24 h) was “did not significantly affect kindling development”. For the same compound, the “effect on kindling development” value in data set [1] (40 mg/kg i.p. repeatedly every 24 h) is on record as “did not significantly affect kindling development”. In data set [1] (80 mg/kg i.p. repeatedly, p < 0.01 after 19th PTZ injection), the “effect on kindling progression” value is recorded as “slightly suppressed kindling progression”. Besides, in data set [1] (80 mg/kg, mean ± SD), the “average seizure severity score after the first PTZ injection” value is reported as 0.87 ± 0.35 and the “average seizure severity score after the last PTZ injection” value came out at 2.65 ± 1.28. In addition, the “Pe relative to that of caffeine” value in data set [2] is “approximately 70%”. Moreover, the Papp in data set [2] (passive blood–brain barrier permeability model, read-out: permeability coefficient (Pe)) came to 2.42 ×10⁻⁶ cm/s.
